Reference: patent US5164189A, “Single layer transdermal drug administration system” (priority 1991, dated 1992)

Columns and labels:
in vivo = details: rhesus monkey, iv, 0.05 mg/kg
Description: (§1) This solution was injected into the saphenous vein of each monkey at a dose of 1 mL/Kg of bodyweight.
(§2) The serum from each blood sample was separated from other blood components via centrifugation, and then stored at -20° C. until the analysis described in Example 1(f)(1) was performed.
(§3) In separate clean test tubes, 1.5 mL of serum standard (Example 1(d)), serum sample (Examples 1(d) and (e)) and blank (Example 1(d)) was separately buffered with 150 microliters of a 0.42 M phosphate buffer, pH 7.2.
(§4) Each serum sample was then extracted with 4.5 mL of chloroform containing 0.1 M Di (2-ethylhexyl) phosphate (DEHP). The chloroform layer was separated into clean screw cap test tubes and mixed with 375 microliters of a 0.5 M HCl solution.
(§5) The aqueous extracts were then separated by centrifugation and analyzed by the HPLC-Fluorescence procedure described directly below.
(§6) The HPLC system consisted of a Waters Model 590 (Millipore Corporation, Bedford, Mass.) solvent delivery system equipped with a Waters Model 710 B Wisp auto injector, a Zorbax CN column (Dupont, 6 micron particles, 25 cm×4.6 mm internal diameter), Kratos (Kratos Analytical Instruments)Model 970 fluorescence detector (excitation 225 nm and emission 280 nm), and the Ingrad Data Analysis system (G. D. Searle & Co.). […] The mobile phase was pumped at a flow rate of 1.0 mL/minute. The injection volume was 100 microliters. The sensitivity of the method was 2.0 ng/mL.
(§7) The coefficient of variation associated with low (10 ng/mL) and high (80 ng/mL) quality control standard solutions were 4.5 and 3.4 percent, respectively.

[1] = cited from earlier work
[2] = Intravenous albuterol pharmacokinetics in Rhesus monkeys; details: 0.05 mg/kg
Description: as §1, §2, §3, §4, §5, §6, §7

SMILES: CC(C)(C)NCC(O)c1ccc(O)c(CO)c1 (centres unmarked) [albuterol]
- AUC (in vivo): 84.2 ng·h/mL
- Apparent volume of distribution in humans ([1]; human): 2.2 L/kg
- Oral bioavailability ([1]; oral, extensive first pass metabolism, 'as low as'): ≥ 10%
- Apparent volume of distribution ([2]; 50 mcg/Kg IV, Rhesus monkeys, n=4, mean): 1.9359 L/kg
- Vd ([2]; rhesus monkey, serum, iv): 1.94 ± 0.0372 L/kg
